Results on one molecule are retold here after US20090028925A1, “Novel Phosphinic Acid-Containing Thyromimetics” (priority 2005, published 2009).

The nature of series [1]: Liver distribution following oral administration. The format is in vivo. Particulars: liver levels of Compound 7, normal rats, oral 10 mg/kg. Here is the method: Liver levels of Compound 7 were assessed in normal rats following oral administration of the HepDirect™ or other prodrugs. The levels were used to estimate potential efficacy. Liver levels were assessed by LC-MS using the 363.3/63.0 peak area to estimate levels of Compound 7 generated by orally administered prodrugs.

In another series the test system is serum cholesterol. The experiment in a line: Subacute study in cholesterol-fed rats, IP: serum cholesterol. It is filed as in vivo. Particulars: IP once-a-day for seven days.
Series [2] can be described thus: Continuous infusion study in rats on a cholesterol-containing diet. It is filed as in vivo. Particulars: continuous infusion 1 mg/kg/day.
Description: Screening for thyromimetic activity was performed in normal rats maintained on a cholesterol-containing diet. Compounds were administered by continuous infusion using an osmotic pump at 1 mg/kg/day.
In another series the test system is heart mGPDH activity. In words: Subacute study in normal rats, continuous infusion: heart mGPDH activity. Particulars: continuous infusion 1 mg/kg/day. The format is in vivo, rats (Sprague-Dawley). An excerpt:
Efficacy endpoints include serum cholesterol, liver mitochondrial glycerol phosphate dehydrogenase (mGPDH) activity and the expression of relevant liver genes (e.g., the LDL-receptor, apoB, cpt-1, spot14 and apoAI). Safety parameters include heart weight, heart rate, heart mGPDH activity, the expression and key genes involved in cardiac structure and function (e.g., Serca2, HCN2, Kv1.5, MHCα, MHCβ, Alpha1c), and standard plasma chemistry analysis (liver enzymes, electrolytes, creatinine). Endocrine effects are monitored by analysis of serum thyroid stimulating hormone (TSH). [Taylor et al., Mol Pharmacol 52(3): 542-7 (1997); Weitzel et al., Eur J Biochem 268(14):4095-4103 (2001)]
(§1) Methods: mGPDH activity was analyzed in isolated mitochondria using 2-(4-iodophenyl)-3-(4-nitrophenyl)-5-phenyl tetrazolium chloride as the terminal electron acceptor (Gardner R S, Analytical Biochemistry 59:272 (1974)). Commercially available GPDH was used in each assay as a standard (Sigma, St. Louis, Mo.). Changes in levels of mRNA for liver and heart genes are analyzed using reverse transcriptase followed by real-time PCR analysis. The analysis is performed using an iCycler instrument (Biorad) and appropriate primers by means of standard methodology [e.g., Schwab D A et al. (2000) Life Sciences 66: 1683-94]. The amounts of mRNA are normalized to an internal control, typically, cyclophilin. Serum TSH is measured using an enzyme immunoassay (EIA) kit designed for rat TSH (Amersham Pharmacia Biotech, Arlington Heights, Ill.).
Normal rats (Sprague-Dawley) were maintained on a standard diet. […] The compounds were brought up to an appropriate volume using PBS and BSA to maintain solubility within the pump. The compounds were chemically stable in the excipient at 37° C. for 7 days.
Values are expressed as percent of control. (Table 4)

For series [3], the system named is thyroid stimulating hormone (TSH). The experiment in a line: Circulating TSH in rats (cholesterol-fed, ZDF). It is filed as in vivo. Particulars: ZDF rats, 50 mg/kg/d for 28 days. Here is the method:
as §1
(§2) Another concern with synthetic thyromimetics is the suppression of the endogenous thyroid axis. Thyroid homeostasis is maintained by the action of thyroid releasing hormone (TRH) and thyroid stimulating hormone (TSH). […] Although this particular side effect has been noted, it has typically been treated with less concern than the cardiac safety issues. […] Therefore previous investigators have measured TSH levels when testing synthetic thyromimetics and have used a 30% decrease of TSH as the denominator in their therapeutic index calculations. […] Therefore, both compounds suppress TSH as doses lower than that required to decrease circulating cholesterol. […] However, 0.2 mg/kg/d of Compound 18 in 28 day treated ZDF rats, decreased TSH levels greater than 90%.

The subject of a further series is liver triglycerides. The experiment in a line: Hepatic triglyceride content in normal rats, chronic infusion. It is filed as in vivo. Particulars: normal rats chronically infused for 7 days. Here is the method:
Normal rats were chronically infused with Compound 7 for 7 days. Liver triglycerides were analyzed following lipid extraction by the Bligh Dyer method (Bligh E G and Dyer W J, A rapid method of total lipid extraction and purification. Can J Med. Sci. 1959 (August); 37(8):911-7, incorporated herein by reference). Total triglycerides were analyzed in the liver extracts by an enzymatic assay (Thermo Electron Corporation). Total lipid was normalized to initial liver weight and triglyceride content was normalized to liver weight. […] There was a 4% reduction in liver triglycerides for this group and the results were not statistically significant.

The subject of a further series is plasma cholesterol. The experiment in a line: Cholesterol lowering in hypercholesterolemic rats. The format is in vivo.
Series [4] concerns thyroid stimulating hormone (TSH). In words: Circulating TSH in mice. It is filed as in vivo. Particulars: 10 mg/kg/d for 77 days.
Description: as §2

Series [5] is described as follows: Subacute study in cholesterol-fed rats, IP: heart weight and heart mGPDH activity.
Description: The cholesterol-fed rat is an animal model of hypercholesterolemia generated by feeding the animals a diet with high cholesterol content.
Serum cholesterol values were assessed and the animals randomized into groups for treatment.

For the molecule `Cc1cc(OCP(=O)(O)O)cc(C)c1Cc1ccc(O)c(C(C)C)c1` [Compound 7, [3,5-dimethyl-4-(4′-hydroxy-3′-iso-propylbenzyl)phenoxy]methylphosphonic acid], the “Liver Levels (ug/g) (10 mg/kg@1.5 h)” value in series [1] was “Not Detected”. In addition, in the series with serum cholesterol, the “doses that significantly decreased serum cholesterol” value was in the range of 1 to 100 mg/kg/day. For the same molecule, in series [2] (day 7 and day 14), the cholesterol lowering effects entry is recorded as “demonstrated cholesterol lowering effects”. The “cardiovascular parameters (heart rate, LV dP/dt, systolic and diastolic blood pressure)” value in [2] (day 7 or day 14) is “no changes in any of the cardiovascular parameters”. Besides, the “Heart GPDH” value in the series on heart mGPDH activity was 112% of control. In addition, in series [3], the TSH versus vehicle entry is listed as “no statistically significant difference from vehicle”. Moreover, the “reduction in liver triglycerides” value with liver triglycerides amounted to 64%. Besides, the change in vivo at 0.2 mg/kg/day in the series with plasma cholesterol (Rattus norvegicus, ip, delivered i.p (0.2 mg/kg/d), percentage change from pre-dose cholesterol, read-out: % Cholesterol Lowering) is -41.5%. The “efficacy in lowering cholesterol” value in the series on plasma cholesterol (another experiment, hypercholesterolemic rats) is given as “efficacious”. Moreover, in series [4], the “decrease in TSH” value is listed as “no decrease in TSH was observed”. Further, in series [5] (IP once-a-day for seven days), the cardiac hypertrophy result was “No cardiac hypertrophy was observed”. For the same molecule, the “therapeutic window between efficacy (cholesterol lowering) and toxicity (cardiac hypertrophy, heart GPDH)” value in series [5] (IP seven days) is recorded as 10- to 100 fold. Also, the “heart GPDH activity” value in series [5] (IP, 100 mg/kg) is given as “trend towards increased heart GPDH activity”. In [5] (IP, any dose), the adverse cardiac effects result was “No adverse cardiac effects were observed”.
